Our source for the IC50 values is patent US20230382889A1 (Volastra Therapeutics, Inc., priority 2022, published 2023).

The subject of one assay is JIMT-1 cells. In words: Cell viability of KIF18a-sensitive cell lines, JIMT-1 (Cell Titre-Glo, 7 days). The assay is classed as cell-based. The conditions noted are these: Homo sapiens, 168 h; JIMT-1, 7 days; read-out: JIMT-1 IC50. As to the method:
(§1) Cell lines were seeded as follows 24 hours before compound treatment: HCC15 (Korean Cell Line Bank) 600 cell/well, 95 μL of RPMI-1640 media supplemented with 100 units/mL penicillin, 100 units/mL streptomycin and 10% FBS; NIH:OVCAR-3 (ATCC), 1000 cell/well, 95 μL of RPMI-1640 media supplemented with 100 units/mL penicillin, 100 units/mL streptomycin, 0.01 mg/mL bovine insulin, and 20% FBS; JIMT-1 (Addexbio) 1000 cell/well, 95 μL of DMEM media supplemented with 100 units/mL penicillin, 100 units/mL streptomycin, and 10% FBS.
(§2) Test compounds were added to cells in a 20× dilution scheme by adding 5 μL of serially diluted compound to the plate, and the treated cells were incubated for an additional 7 days in a 37° C., 5% CO2 incubator. DMSO was used as the negative control (0% effect), and wells omitting cells were used as the positive control (100% effect). The cells were incubated for seven days, and cell viability determined via the Promega Cell Titre-Glo® Assay kit. Luminescence units were converted to ATP concentrations via an ATP standard curve (10 point, 2-fold dilution from 5 uM). % Inhibition was calculated for each well as: ([max−min]−[test−min])/[max−min]. IC50 values were calculated from concentration vs. % Inhibition data via a four-parameter variable slope model.

For a further assay, the system named is HCC15 cells. Kind of assay: Cell viability of KIF18a-sensitive cell lines, HCC15 (Cell Titre-Glo, 7 days). The assay is classed as cell-based. The conditions noted are these: 168 h; HCC15, 7 days; read-out: HCC15 IC50. As to the method: as §1, §2
The target in another assay is hKIF18A (1-374) (Homo sapiens (Human), UniProt Q8NI77). Kind of assay: Inhibition of KIF18A microtubule-dependent ATPase activity (ADP-Glo). Conditions: 4 nM hKIF18A (1-374). Format: biochemical. Summed up: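 Reaction was started with pre-formed microtubules and ATP (0.2 mg/mL and 2.0 mM in the added mix) and run 60 min at 28 °C. ADP was read by ADP-Glo luminescence, and IC50 came from a four-parameter fit of % inhibition.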
hKIF18A (1-374), sequence (Q8NI77 1-374): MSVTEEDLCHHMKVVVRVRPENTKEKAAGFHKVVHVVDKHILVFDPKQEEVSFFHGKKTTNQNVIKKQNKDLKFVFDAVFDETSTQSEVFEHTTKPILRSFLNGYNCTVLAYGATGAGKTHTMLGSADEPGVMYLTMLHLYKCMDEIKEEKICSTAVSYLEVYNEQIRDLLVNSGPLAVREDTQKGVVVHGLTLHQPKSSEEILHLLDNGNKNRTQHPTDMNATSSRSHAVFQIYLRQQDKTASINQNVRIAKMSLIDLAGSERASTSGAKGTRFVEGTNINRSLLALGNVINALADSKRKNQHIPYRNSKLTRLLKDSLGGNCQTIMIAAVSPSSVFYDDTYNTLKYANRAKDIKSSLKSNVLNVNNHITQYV

The next assay has as its system NIH:OVCAR-3 cells. In words: Cell viability of KIF18a-sensitive cell lines, NIH:OVCAR-3 (Cell Titre-Glo, 7 days). Format: cell-based. The conditions noted are these: Homo sapiens, OVCAR-3, 168 h; NIH:OVCAR3, 7 days; read-out: NIH:OVCAR3 IC50. As to the method:
as §1, §2

With `O=S(=O)(CCO)Nc1ccc(-n2cc(-c3ccc(F)c(N4CCC(F)(F)CC4)n3)nn2)c(N2CCC3(CC2)CC3)c1` [Compound 79, N-(4-(4-(6-(4,4-difluoropiperidin-1-yl)-5-fluoropyridin-2-yl)-1H-1,2,3-triazol-1-yl)-3-(6-azaspiro[2.5]octan-6-yl)phenyl)-2-hydroxyethane-1-sulfonamide], the IC50 in the assay with JIMT-1 cells amounted to 0.0078 µM; in the assay on HCC15 cells, 0.0054 µM; on hKIF18A (1-374) it was 0.015 µM; in the assay on NIH:OVCAR-3 cells it was 0.0083 µM.

Consider `Cc1cc(-n2cc(-c3ccc(NS(=O)(=O)CCO)cc3N3CCC4(CC3)CC4)nn2)nc(N2CCC(F)(F)CC2)n1` [Compound 87, N-(4-(1-(2-(4,4-difluoropiperidin-1-yl)-6-methylpyrimidin-4-yl)-1H-1,2,3-triazol-4-yl)-3-(6-azaspiro[2.5]octan-6-yl)phenyl)-2-hydroxyethane-1-sulfonamide], for which the IC50 in the assay with JIMT-1 cells is 0.09 µM; in the assay with HCC15 cells, 0.043 µM; on hKIF18A (1-374), 0.027 µM; in the assay on NIH:OVCAR-3 cells, 0.049 µM.

Turning to `Cc1cc(-c2cn(-c3ccc(NS(=O)(=O)CCO)cc3N3CCC(C)CC3)nn2)nc(N2CCC(F)(F)CC2)n1` [Compound 89, N-(4-(4-(2-(4,4-difluoropiperidin-1-yl)-6-methylpyrimidin-4-yl)-1H-1,2,3-triazol-1-yl)-3-(4-methylpiperidin-1-yl)phenyl)-2-hydroxyethane-1-sulfonamide], the half-inhibitory concentration (IC50) in the assay on JIMT-1 cells was determined as 0.048 µM; in the assay on HCC15 cells, 0.034 µM; at hKIF18A (1-374), 0.021 µM; with NIH:OVCAR-3 cells, 0.051 µM.

On to `Cc1cc(-c2cn(-c3ccc(NS(=O)(=O)C4(CO)CC4)cc3N3CCCCC3)nn2)nc(N2CCC(F)(F)CC2)n1` [Compound 91, N-(4-(4-(2-(4,4-difluoropiperidin-1-yl)-6-methylpyrimidin-4-yl)-1H-1,2,3-triazol-1-yl)-3-(piperidin-1-yl)phenyl)-1-(hydroxymethyl)cyclopropane-1-sulfonamide], for which the IC50 turned out to be 0.035 µM with JIMT-1 cells, 0.029 µM with HCC15 cells, 0.036 µM against hKIF18A (1-374) and 0.04 µM in the assay on NIH:OVCAR-3 cells.

Turning to `Cc1cc(N2CCC(F)(F)CC2)nc(-n2cc(-c3ccc(NS(=O)(=O)CCO)cc3N3CCC4(CC3)CC4)nn2)c1` [Compound 95, N-(4-(1-(6-(4,4-difluoropiperidin-1-yl)-4-methylpyridin-2-yl)-1H-1,2,3-triazol-4-yl)-3-(6-azaspiro[2.5]octan-6-yl)phenyl)-2-hydroxyethane-1-sulfonamide], the IC50 with JIMT-1 cells is 0.068 µM; in the assay on HCC15 cells, 0.037 µM; against hKIF18A (1-374) it was 0.038 µM; in the assay with NIH:OVCAR-3 cells, 0.051 µM.

Take `O=S(=O)(CCO)Nc1ccc(-c2cn(-c3cncc(N4CCC(F)(F)CC4)n3)nn2)c(N2CCC3(CC2)CC3)c1` [Compound 96, N-(4-(1-(6-(4,4-difluoropiperidin-1-yl)pyrazin-2-yl)-1H-1,2,3-triazol-4-yl)-3-(6-azaspiro[2.5]octan-6-yl)phenyl)-2-hydroxyethane-1-sulfonamide]: the IC50 in the assay with JIMT-1 cells was found to be 0.044 µM; in the assay with HCC15 cells, 0.017 µM; against hKIF18A (1-374) it was 0.0044 µM; in the assay on NIH:OVCAR-3 cells, 0.028 µM.

In the case of `Cc1cc(-n2cc(-c3ccc(NS(=O)(=O)CCO)cc3N3CCC4(CC3)CC4)nn2)nc(N2CC3C(C2)C3(F)F)n1` (centres unmarked) [Compound 97, N-(4-(1-(2-(6,6-difluoro-3-azabicyclo[3.1.0]hexan-3-yl)-6-methylpyrimidin-4-yl)-1H-1,2,3-triazol-4-yl)-3-(6-azaspiro[2.5]octan-6-yl)phenyl)-2-hydroxyethane-1-sulfonamide], the IC50 in the assay on JIMT-1 cells was 0.11 µM; in the assay with HCC15 cells, 0.037 µM; against hKIF18A (1-374) it was 0.036 µM; with NIH:OVCAR-3 cells, 0.072 µM.

On to `O=S(=O)(CCO)Nc1ccc(-n2cc(-c3cccc(OC4CCCC4)n3)nn2)c(N2CCC3(CC2)CC3)c1` [Compound 100, N-(4-(4-(6-(cyclopentyloxy)pyridin-2-yl)-1H-1,2,3-triazol-1-yl)-3-(6-azaspiro[2.5]octan-6-yl)phenyl)-2-hydroxyethane-1-sulfonamide], for which the IC50 with JIMT-1 cells worked out at 0.06 µM; with HCC15 cells, 0.045 µM; on hKIF18A (1-374), 0.011 µM; in the assay on NIH:OVCAR-3 cells, 0.08 µM.

For `Cc1cc(-c2cn(-c3ccc(NS(=O)(=O)CCO)cc3N3CCC4(CC3)CC4)nn2)nc(N2CCCCC2)n1` [Compound 101, 2-hydroxy-N-(4-(4-(6-methyl-2-(piperidin-1-yl)pyrimidin-4-yl)-1H-1,2,3-triazol-1-yl)-3-(6-azaspiro[2.5]octan-6-yl)phenyl)ethane-1-sulfonamide], the 50% inhibitory concentration (IC50) in the assay on JIMT-1 cells came to 0.027 µM; with HCC15 cells, 0.016 µM; against hKIF18A (1-374), 0.017 µM; in the assay on NIH:OVCAR-3 cells, 0.027 µM.

Turning to `CCS(=O)(=O)Nc1ccc(-n2cc(-c3cc(C)nc(N4CCC(F)(F)CC4)n3)nn2)c(N2CCC3(CC2)CC3)c1` [Compound 106, N-(4-(4-(2-(4,4-difluoropiperidin-1-yl)-6-methylpyrimidin-4-yl)-1H-1,2,3-triazol-1-yl)-3-(6-azaspiro[2.5]octan-6-yl)phenyl)ethanesulfonamide], the IC50 in the assay on JIMT-1 cells came to 0.024 µM; in the assay with HCC15 cells it was 0.018 µM; against hKIF18A (1-374), 0.032 µM; in the assay with NIH:OVCAR-3 cells, 0.025 µM.

For the compound `CCS(=O)(=O)Nc1ccc(-c2cn(-c3cccc(S(=O)(=O)NC(C)(C)C)c3)nn2)c(N2CCC3(CC2)CC3)c1` [Compound 110, N-(tert-butyl)-3-(4-(4-(ethylsulfonamido)-2-(6-azaspiro[2.5]octan-6-yl)phenyl)-1H-1,2,3-triazol-1-yl)benzenesulfonamide], the IC50 with JIMT-1 cells was found to be 0.0068 µM; with HCC15 cells, 0.0033 µM; against hKIF18A (1-374), 0.015 µM; with NIH:OVCAR-3 cells, 0.0044 µM.

In the case of `CCS(=O)(=O)Nc1ccc(-n2cc(-c3cccc(S(=O)(=O)NC(C)(C)C)c3)nn2)c(N2CCC3(CC2)CC3)c1` [Compound 116, N-(tert-butyl)-3-(1-(4-(ethylsulfonamido)-2-(6-azaspiro[2.5]octan-6-yl)phenyl)-1H-1,2,3-triazol-4-yl)benzenesulfonamide], the IC50 with JIMT-1 cells turned out to be 0.0063 µM; with HCC15 cells, 0.0036 µM; against hKIF18A (1-374), 0.014 µM; with NIH:OVCAR-3 cells it was 0.0039 µM.

With `CCS(=O)(=O)Nc1cc(N2CCC3(CC2)CC3)c(-n2cc(-c3cccc(S(=O)(=O)NC(C)(C)C)c3)nn2)cc1F` [Compound 117, N-(tert-butyl)-3-(1-(4-(ethylsulfonamido)-5-fluoro-2-(6-azaspiro[2.5]octan-6-yl)phenyl)-1H-1,2,3-triazol-4-yl)benzenesulfonamide], the IC50 in the assay on JIMT-1 cells worked out at 0.014 µM; in the assay on HCC15 cells, 0.01 µM; on hKIF18A (1-374), 0.02 µM; with NIH:OVCAR-3 cells it was 0.013 µM.

For the compound `O=S(=O)(CCO)Nc1ccc(-n2cc(-c3ccn(C4CCC(F)(F)CC4)n3)nn2)c(N2CCC3(CCC3)CC2)c1` [Compound 130, N-(4-(4-(1-(4,4-difluorocyclohexyl)-1H-pyrazol-3-yl)-1H-1,2,3-triazol-1-yl)-3-(7-azaspiro[3.5]nonan-7-yl)phenyl)-2-hydroxyethane-1-sulfonamide], the IC50 in the assay with JIMT-1 cells was found to be 0.029 µM; in the assay with HCC15 cells it was 0.012 µM; on hKIF18A (1-374) it was 0.005 µM; in the assay with NIH:OVCAR-3 cells it was 0.019 µM.
